Results as given in the NIST ThermoML archive (doi:10.1021/je500431h).

Test: xn = mol fraction of the nth substance listed
Settings: 101 kPa, Liquid; for electrical conductivity: conductivity meter LF 340 and a standard conductivity cell TetraCon; for mass density: Pycnometric method

C=CCn1cc[n+](CCOC)c1.O=S(=O)([N-]S(=O)(=O)C(F)(F)F)C(F)(F)F + O=S(=O)([N-]S(=O)(=O)C(F)(F)F)C(F)(F)F.[Li+]
Settings	electrical conductivity [S/m]	mass density [kg/m3]	viscosity [mPa·s]
332.9 K, x2 = 0	1.06	–	–
333.1 K, x2 = 0.3254	0.405	–	–
333.4 K, x2 = 0.2508	0.535	–	–
334 K, x2 = 0	–	1413.9	11.2
334 K, x2 = 0.1007	0.885	–	–
334 K, x2 = 0.176	–	1455.7	20.4
334 K, x2 = 0.2508	–	1479.8	25.9
334 K, x2 = 0.3254	–	1499.7	37.1
334 K, x2 = 0.4001	–	1526.3	63.2
334.2 K, x2 = 0.1007	–	1435.7	15.3
334.3 K, x2 = 0.4001	0.275	–	–
334.5 K, x2 = 0.176	0.691	–	–
337 K, x2 = 0.3254	–	1496.9	32
337.4 K, x2 = 0.2508	0.6	–	–
337.6 K, x2 = 0	1.18	–	–
338 K, x2 = 0.176	–	1452.1	18.2
338 K, x2 = 0.2508	–	1475.9	22.9
338.1 K, x2 = 0.1007	–	1432	12.9
338.5 K, x2 = 0	–	1409.9	10
338.5 K, x2 = 0.3254	0.474	–	–
338.9 K, x2 = 0.176	0.76	–	–
339 K, x2 = 0.1007	0.986	–	–
339 K, x2 = 0.4001	–	1521.4	54.2
339.3 K, x2 = 0.4001	0.323	–	–
343 K, x2 = 0	1.33	–	–
343 K, x2 = 0.3254	–	1491.1	27.3
343.2 K, x2 = 0.1007	–	1427.3	11.4
343.3 K, x2 = 0.3254	0.539	–	–
343.5 K, x2 = 0.2508	0.698	–	–
343.8 K, x2 = 0.176	0.858	–	–
344 K, x2 = 0	–	1404.9	8.8
344 K, x2 = 0.176	–	1446.6	15.4
344 K, x2 = 0.4001	–	1516.5	44.8
344.4 K, x2 = 0.4001	0.385	–	–
344.5 K, x2 = 0.1007	1.11	–	–
345 K, x2 = 0.2508	–	1469.2	19.2
347 K, x2 = 0.3254	–	1487.3	24
348 K, x2 = 0	–	1401.3	8.2
348.1 K, x2 = 0	1.48	–	–
348.2 K, x2 = 0.2508	0.784	–	–
348.3 K, x2 = 0.1007	1.19	–	–
348.5 K, x2 = 0.3254	0.62	–	–
348.6 K, x2 = 0.176	0.954	–	–
348.7 K, x2 = 0.4001	0.436	–	–
349 K, x2 = 0.1007	–	1421.9	10.3
349 K, x2 = 0.176	–	1442	13.7
349 K, x2 = 0.2508	–	1465.4	17.1
349 K, x2 = 0.4001	–	1511.6	38
352 K, x2 = 0	1.6	–	–
352.5 K, x2 = 0.2508	0.858	–	–
353.3 K, x2 = 0.3254	0.694	–	–
353.5 K, x2 = 0.4001	0.498	–	–
354.2 K, x2 = 0	–	1395.8	7
354.5 K, x2 = 0.1007	–	1416.9	9.5
354.9 K, x2 = 0.1007	1.35	–	–
354.9 K, x2 = 0.176	1.09	–	–
355 K, x2 = 0.176	–	1436.6	11.9
355 K, x2 = 0.2508	–	1459.8	14.6
355 K, x2 = 0.4001	–	1505.8	31.7
356 K, x2 = 0.3254	–	1478.8	18.9
